Measured values: EP3404113A1, “METHOD FOR DETECTING PROTEIN-DNA INTERACTION” (Universidad del Pais Vasco, priority 2017, dated 2018)
“Also recorded” adds a separate entry of the source.

Legend:
[1] = test system: DNA-hairpin reporter; experiment: Nanopore detection of a non-specific DNA interacting compound; assay type: binding
[2] = target: T1, FOXM1 (Homo sapiens, UniProt Q08050); experiment: Nanopore single-molecule measurement of the inhibition of FOXM1 binding to its DNA target sequence
T1 construct: the FoxMIC gene (residues 222-360) was cloned in a pET-28 vector; made in house; host or cells: E. coli BL21 (DE3)
T1 sequence (Q08050 222-360): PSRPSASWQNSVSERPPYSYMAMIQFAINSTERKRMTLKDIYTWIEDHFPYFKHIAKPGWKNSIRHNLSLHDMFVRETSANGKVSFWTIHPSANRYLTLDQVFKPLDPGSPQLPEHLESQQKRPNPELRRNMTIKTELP
Protocol: The cis compartment (connected to the ground electrode and where samples were added) was filled with 5 mM MgCl2, 150 mM KCl, 10 mM HEPES pH 7.2 (to mimic physiological conditions) and the trans compartment with 5 mM MgCl2, 2 M KCl, 10 mM HEPES pH 7.2 (to increase the ionic current signal). 0.5 µL of previously heptamerized α-HL was added to the cis compartment and following the first insertion the chamber was manually perfused to remove excess of α-HL. Ionic currents through the αHL pore were measured using Ag/AgCl electrodes with agar bridges in 3 M KCl, and balanced before measurements. The electrodes were connected to an amplifier (Axopatch 200B, Molecular Devices), the signal was filtered at 5 kHz (lowpass Bessel filter) and acquired at 20 kHz with a digitizer (Digidata 1440A, Molecular Devices). All experiments were repeated in at least 3 different pores. Raw data was first analyzed with pClamp software (Molecular Devices) to obtain the current and dwell time of the ionic current levels, >90% of the signals longer than 10 ms were the characteristic signals described in the main text. The residual current of a level is defined as the ionic current of the level divided by the ionic current of the open pore. Data analysis was carried out with Igor Pro (Wavemetrics) and molecular representations were performed using Chimera (UCSF).^47 The confidence interval of the kinetic rates were estimated using: kupp = k⋅(1+z/√n) [formula] klow = k⋅(1−z/√n) [formula] Transcription factors are frequently considered as ideal targets for cancer therapy, yet finding molecules capable of specifically inhibiting their interactions with DNA is challenging. Motivated by the high sensitivity of our measurements, we aimed to explore the capabilities of the nanopore to detect small molecule activity. We choose the DNA binding domain of Forkhead box protein M1 (FOXM1), which is overexpressed in many cancers and for which a molecule that inhibits binding to its target sequence has been reported, FDI-6^37 (Figure 3). When a DNA hairpin containing the binding sequence^38 and a 5' overhang is subjected to nanopore analysis we observe the characteristic ionic current signal reflecting the threading, unzipping and translocation of the DNA (Figure 3a). […] In agreement with previous reports,^29 we attribute the differences in unzipping kinetics to the differences in the first base pair to be unzipped. The RepE oligonucleotide begins with G-C while that of FOXM1 begins with A-T. Following the addition of FOXM1 protein, events showing an additional step are detected (Figure 3b), which correspond to the threading of protein-bound DNA molecules, detachment of the protein, unzipping and translocation of the DNA through the pore. […]

[3] = target: T2, RepE-DNA (Escherichia coli, UniProt P03856); experiment: Multiplexed nanopore single-molecule measurement, RepE-DNA pair (Reporter 1); assay type: binding; details: 0.87 µM RepE, 0.047 µM DNA, increasing amounts of FDI-6, n = 4
T2 construct: purified from an intein vector pTXB1 containing the ORF fused with intein at the C terminus; made in house; host or cells: E. coli BL21 (DE3)

[4] = target: T3, FOXM1-DNA (Homo sapiens, UniProt Q08050); experiment: Multiplexed nanopore single-molecule measurement, FOXM1-DNA pair (Reporter 2); assay type: binding; details: increasing amounts of FDI-6
T3 construct: the FoxMIC gene (residues 222-360) was cloned in a pET-28 vector; made in house; host or cells: E. coli BL21 (DE3)
T3 sequence (Q08050 222-360): T1 sequence (Q08050 222-360)

## COc1cccc2c1C(=O)c1c(O)c3c(c(O)c1C2=O)C[C@@](O)(C(=O)CO)C[C@@H]3O[C@H]1C[C@H](N)[C@H](O)[C@H](C)O1 [doxorubicin]
[1]; 2.5 mM doxorubicin added to a solution of RepE and its DNA-hairpin reporter
  ionic current traces: no characteristic signal for DNA unzipping and translocation was detected
[1]; interaction of doxorubicin with the DNA
  ionic current signal: radically changed the ionic current signal, giving noisy long-lived events

## Nc1c(C(=O)Nc2ccc(F)cc2)sc2nc(-c3cccs3)cc(C(F)(F)F)c12 [FDI-6]
[2]
  mechanism of action deduced from kinetics of DNA unzipping and protein detachment: binds the protein (not the DNA), and that binding is competitive
[2]; affinity of the inhibitor for the protein, model: one site, reversible, binding completely prevents protein-DNA interaction, mean ± SD, n=7
  Kd: 139 ± 73 µM
[2]; protein detachment from DNA in the presence of FDI-6, +90 mV, 95 % CI, n = 3, compound absent 57 [96 - 18], read-out: koff,90mV,FD16
  koff: 49 s⁻¹
[2]; sequential additions of FDI-6 to FOXM1-DNA solution
  fraction of events with a protein bound to DNA: decreases
[3]
  effect on the interaction between RepE and its target sequence: had no effect; also recorded: in none of our measurements was the RepE-DNA pair affected
[4]
  fraction of events assigned to Reporter 2 with bound protein: decreased
